Results reported in patent US7501442B2, “Biphenyl compounds useful as muscarinic receptor antagonists” (Theravance, Inc., priority 2004, dated 2009).

Key:
[1] = tested on: ACh-induced bronchoconstriction; assay: Duration of bronchoprotection in guinea pig model of acetylcholine-induced bronchoconstriction; assay type: in vivo; details: inhalation, 1.5 hours post-dose
Method: Determination of Duration of Bronchoprotection in Guinea Pig Model of Acetylcholine-Induced Bronchoconstriction
Groups of six male guinea pigs (Duncan-Hartley (HsdPoc:DH) Harlan, Madison, Wis.) weighing between 250 and 350 g were individually identified by cage cards. Throughout the study animals were allowed access to food and water ad libitum.
Test compounds were administered via inhalation over 10 minutes in a whole-body exposure dosing chamber (R&S Molds, San Carlos, Calif.). The dosing chambers were arranged so that an aerosol was simultaneously delivered to 6 individual chambers from a central manifold. Guinea pigs were exposed to an aerosol of a test compound or vehicle (WFI). […] This was measured gravimetrically by comparing pre- and post-nebulization weights of the filled nebulizer.
The bronchoprotective effects of test compounds administered via inhalation were evaluated using whole body plethysmography at 1.5, 24, 48 and 72 hours post-dose.
Forty-five minutes prior to the start of the pulmonary evaluation, each guinea pig was anesthetized with an intramuscular injection of ketamine (43.75 mg/kg), xylazine (3.50 mg/kg) and acepromazine (1.05 mg/kg). […] The depth of anesthesia was monitored and adjusted if the animal responded to pinching of its paw or if the respiration rate was greater than 100 breaths/minute. […]

hM2 receptor = biological target: T1, hM2 receptor (Homo sapiens, UniProt P08172); assay: Blockade of agonist-mediated inhibition of cAMP accumulation; assay type: cell-based; details: CHO-K1 cells expressing the hM2 receptor; read-out: Ki value for blockade of oxotremorine-inhibition of forskolin-mediated cAMP accumulation
T1 construct: expressed in transfected cells; host or cells: CHO-K1 cells
T1 sequence (P08172 1-466): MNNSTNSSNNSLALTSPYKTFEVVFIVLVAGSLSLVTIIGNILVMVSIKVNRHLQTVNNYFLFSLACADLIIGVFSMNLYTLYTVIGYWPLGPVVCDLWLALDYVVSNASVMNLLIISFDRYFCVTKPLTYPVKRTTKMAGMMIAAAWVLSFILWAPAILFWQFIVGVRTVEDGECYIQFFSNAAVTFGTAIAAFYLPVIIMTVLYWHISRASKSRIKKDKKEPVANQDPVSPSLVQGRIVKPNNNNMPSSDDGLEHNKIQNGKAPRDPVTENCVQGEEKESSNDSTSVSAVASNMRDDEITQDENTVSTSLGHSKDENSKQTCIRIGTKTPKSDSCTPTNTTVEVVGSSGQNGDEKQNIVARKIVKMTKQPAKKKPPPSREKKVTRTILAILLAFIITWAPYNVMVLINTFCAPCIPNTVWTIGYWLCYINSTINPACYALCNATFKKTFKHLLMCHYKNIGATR
Method: A. Blockade of Agonist-Mediated Inhibition of cAMP Accumulation
In this assay, the functional potency of a test compound was determined by measuring the ability of the test compound to block oxotremorine-inhibition of forskolin-mediated cAMP accumulation in CHO-K1 cells expressing the hM2 receptor.
cAMP assays were performed in a radioimmunoassay format using the Flashplate Adenylyl Cyclase Activation Assay System with ^125I-cAMP (NEN SMP004B, PerkinElmer Life Sciences Inc., Boston, Mass.), according to the manufacturer's instructions.
Cells were rinsed once with dPBS and lifted with Trypsin-EDTA solution (0.05% trypsin/0.53 mM EDTA) as described in the Cell Culture and Membrane Preparation section above. […] The cell pellet was then re-suspended in 10 mL dPBS, and the cells were counted with a Coulter Z1 Dual Particle Counter (Beckman Coulter, Fullerton, Calif.). […]
Reactions were incubated for 10 minutes at 37° C. and stopped by addition of 100 μL ice-cold detection buffer. Plates were sealed, incubated overnight at room temperature and counted the next morning on a PerkinElmer TopCount liquid scintillation counter (PerkinElmer Inc., Wellesley, Mass.). The amount of cAMP produced (pmol/well) was calculated based on the counts observed for the samples and cAMP standards, as described in the manufacturer's user manual. […]

- Ki (hM2 receptor): < 0.01 µM
Structure (SMILES): CN(CCN1CCC(OC(=O)Nc2ccccc2-c2ccccc2)CC1)C(=O)CCCCCNCCc1ccc(O)cc1 [Example 1, Biphenyl-2-ylcarbamic Acid 1-[2-({6-[2-(4-Hydroxyphenyl)ethylamino]hexanoyl}methylamino)ethyl]piperidin-4-yl Ester]
- PD2(50) for ACh-induced bronchoconstriction [1]: less than 200 μg/mL
